Here are results for three compounds from paper PMC5584254, “Identification of novel small molecule Beclin 1 mimetics activating autophagy” (Oncotarget, 2017).

The test system of assay [1] is DU145. The assay can be described thus: MTT-based cytotoxicity assay, DU145. The following applies: Homo sapiens, DU-145, averages of at least two independent experiments, read-out: Cytotoxicity in different cell lines (IC50, μM) DU145. From the text:
(§1) Human prostate cancer cell lines PC-3 and DU145, were purchased from American Type Culture Collection (ATCC) and used within 50 passages. PC-3a is a derivative of PC-3 that is resistant to chemo/radiotherapy, established in our lab and confirmed by genotyping. All cells were maintained in DMEM (Mediatech, Manassas, VA) supplemented with 10% fetal bovine serum (FBS) (Sigma-Aldrich, St. Louis, MO), 1% Glutamine (Mediatech, Manassas, VA), 1% antibiotics (Mediatech, Manassas, VA). Compounds for primary FP-based HTS screening were from Prestwick, Microsource, University of Kansas Center of Excellence in Chemical Methodologies & Library Development (KU CMLD, Lawrence, KS), and Chembridge libraries. Compounds for MTT and SPR validation experiment were purchased from Microsource (Gaylordsville, CT) and Hit2lead Company (San Diego, CA). Acridine analogues, compound 1–6, were from our in-house library (provided by Specialized Chemistry Center, University of Kansas, Lawrence, KS); compound 7–17 were synthesized as described in supplementary information. (–)-Gossypol was isolated from racemic gossypol as we previously described. ABT-263 and DMSO were purchased from Sigma. MTT-based cytotoxicity assay and western blot analysis was carried out according to our previous publications. The primary antibodies used were LC3B (#2775) (Cell signaling Technology, Danvers, MA) and β-actin (A5441) (Sigma).
In general terms: Formazan colour is commonly taken as a measure of viable cells.

For assay [2], the target named is T1, Bcl-xL-Beclin 1 20-mer complex (Homo sapiens, UniProt Q07817).
T1 construct: made in house
As to the kind of experiment: FP competitive binding assay (disruption of Bcl-xL-20-mer complex). Particulars: 2.5 μM Bcl-xL protein, 400 nM fluorescein-labeled 20-mer. As to the method: Figure 1 FP-based HTS for Beclin 1 mimetics (A) Schematic presentation of the Beclin 1 protein and sequences of five synthetic peptides modified from Beclin 1 BH3 peptide. Diagram of human Beclin 1 protein with different domains is shown in the bottom. BH3 domain is necessary and sufficient for interaction with Bcl-2/Bcl-xL. Amino acids in red are the critical residues for the binding. (B) Five fluorescein-labeled Beclin 1 BH3 peptides were tested for their binding ability to Bcl-xL protein in FP assay. Fluorescein-labeled Bak BH3 peptide was used as a positive control. Bcl-xL protein was titrated to a solution of 50 nM peptides. (C) Competitive binding assay with positive controls, ABT-263 and (–)-gossypol ((–)G). […] (D–E) HTS was performed with ~50000 compounds from Prestwick, Microsource, CMLD and Chembridge libraries. The four libraries were divided into two groups and screened separately. Compounds activity (percent of inhibition) of first screen (D) and second screen (E) were shown with Z′ value indicated on top. Plate median + 3SD was used as a threshold to determine the initial hits.
Bcl-xL protein was immobilized on the sensor chip with 10000 RU.
All N′-fluorescein-labeled peptides were purchased from Kansas State University (Manhattan, KS). […] 16mer Bak ([…]) sequence was from published literature. Bcl-xL protein (25 kDa, > 90% pure based on SDS–PAGE) was expressed and purified in Protein Product Group, University of Kansas. FP assays were carried out as described in our previous publication with some modified. […] Then, fluorescein-labeled peptide was added to each well with a final concentration of 50 nM and incubated at room temperature for 30 min. Anisotropy measurements were taken at room temperature using a BioTek Synergy H4 plate reader (Biotek, Winooski, VT) following the protocol recommended by the manufacture. The Kd was estimated by nonlinear regression to a one-site binding model using GraphPad Prism 5.0 (GraphPad, San Diego, CA). […] Compound solvent DMSO only was used as a negative control in the competition assay. After 2 h incubation, the plate was read and polarization was calculated.

Assay [3] addresses T2, Bcl-xL protein (Homo sapiens, UniProt Q07817).
T2 construct: made in house
The assay can be described thus: Surface plasmon resonance assay, immobilized Bcl-xL. In kind it is binding. The following applies: SPR; 10 μM compound; Bcl-xL immobilized 10000 RU. How it is done: The surface plasmon resonance experiments were performed using a Biacore 3000 (GE Healthcare Pittsburgh, PA) equipped with a research-grade CM5 sensor chip. The ligand (Bcl-xL) was immobilized using amine-coupling chemistry. The surfaces of flow cells on a Biacore sensor chip CM5 were activated for 7 min with a 1:1 mixture of 0.1 M NHS (N-hydroxysuccinimide) and 0.1 M EDC (3-(N,N-dimethylamino) propyl-N-ethylcarbodiimide) at a flow rate of 5 μL/min. The ligand (Bcl-xL) at a concentration of 180 μg/mL in 10 mM sodium acetate, pH 4.5, was immobilized at a density of about 10000 RU on flow cell 2; the ligand (SUMO-Bcl-2, 37.5 kDa, > 90% pure based on SDS–PAGE) at a concentration of 44 μg/ml in 10 mM sodium acetate, pH 4.5, was immobilized at a density of 10000 RU on flow cell 3; flow cell 1 was left blank to serve as a reference surface. All the surfaces were blocked with a 7 min injection of 1 M ethanolamine, pH 8.0.
For kinetic analysis, a concentration series of analyte were injected over the flow cells at a flow rate of 60 μL/min at 20 °C. The complex was allowed to associate and dissociate for 120 and 180 s, respectively. For binding studies, analyte (or test compound) was injected over the two flow cells in duplicate at indicated concentration at a flow rate of 60 μL/min at 20 °C. The running buffer consisted of 20 mM HEPES, 150 mM NaCl, 3 mM EDTA, 1 mM DTT, 0.05% P20, 5% DMSO, pH 7.4. The complex was allowed to associate and dissociate for 120 and 180 s, respectively. The buffer samples containing a range of 4–6% DMSO were injected at the beginning, used for solvent correction. The surfaces were regenerated between binding cycles with a 5 s injection of 5 mM NaOH for compounds and 10 mM Glycine pH 2.5 for 20-mer.
All measurements were taken with flow cell 1 as a reference (i.e. sensorgram depicts “2–1 correction”) and corrected for DMSO bulk differences via the calibration curves. To obtain kinetic rate constants (Ka and Kd), corrected response data were fit to a simple 1:1 interaction model using local fit (includes correction for mass transport limitations) available within Biaevaluation 3.1 software or Scrubber2 software. The equilibrium dissociation constant (KD) was determined by Kd/Ka.
A general note: In SPR one partner is held on a chip, and binding of the other changes the refractive index at the surface.

In assay [4] the test system is PC-3. The assay can be described thus: MTT-based cytotoxicity assay, PC-3. The following applies: Homo sapiens, averages of at least two independent experiments, read-out: Cytotoxicity in different cell lines (IC50, μM) PC-3.
Text: as §1

Structures can show the parent of a compound that is named as a salt.

The term IC50 denotes the concentration that gives 50% inhibition. The term Ki denotes a dissociation constant, usually derived from enzyme kinetics or from competition with a known ligand.

T2 sequence (Q07817 whole entry): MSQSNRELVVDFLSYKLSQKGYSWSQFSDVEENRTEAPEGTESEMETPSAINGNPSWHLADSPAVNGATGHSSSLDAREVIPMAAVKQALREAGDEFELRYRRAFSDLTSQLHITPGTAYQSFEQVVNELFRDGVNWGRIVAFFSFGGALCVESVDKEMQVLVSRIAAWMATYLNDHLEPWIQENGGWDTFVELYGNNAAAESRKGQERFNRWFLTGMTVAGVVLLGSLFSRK
T1 sequence (Q07817 whole entry, one chain of several): as the sequence (Q07817 whole entry) above

As to `Nc1ccc2cc3ccc(N)cc3nc2c1` [Compound A13, PROFLAVINE HEMISULFATE], the values for the half-inhibitory concentration (IC50) in assay [1], in assay [2] and in assay [4] were 0.81 ± 0.51 µM, 4.84 µM and 1.08 ± 0.1 µM, respectively. For the same compound, the inhibition constant (Ki) in assay [2] came out at 0.84 µM. The “binding level to Bcl-xL protein in SPR” value in assay [3] is reported as “could bind to Bcl-xL”.
In the case of `CCOc1ccc2nc3cc(N)ccc3c(N)c2c1` [Compound A15, ETHACRIDINE LACTATE], the 50% inhibitory concentration (IC50) was determined as 10.5 ± 1.11 µM in assay [1], 102 µM in assay [2] and 1.61 ± 0.42 µM in assay [4]. For the same compound, the Ki in assay [2] is 28 µM. The “binding level to Bcl-xL protein in SPR” value in assay [3] is recorded as “could bind to Bcl-xL”.
Regarding `CCN(CC)CCCC(C)Nc1c2ccc(Cl)cc2nc2ccc(OC)cc12` (stereo not drawn) [Compound A21, QUINACRINE HYDROCHLORIDE], the half-inhibitory concentration (IC50) in assay [1] is 2.31 ± 0.39 µM; in assay [2] it was 48.7 µM; in assay [4], 0.77 ± 0.1 µM. For the same compound, the Ki in assay [2] was 13.2 µM. Besides, the “binding level to Bcl-xL protein in SPR” value in assay [3] is listed as “could bind to Bcl-xL”.
